Assay results from patent publication US8080423B2, “Reagent containing protease reaction promoter and/or colorant stabilizer” (Asahi Kasei Pharma Corporation, priority 2004, dated 2011).

Key:
[1] = tested on: Neutral protease (manufactured by Toyobo Co., Ltd.); assay: Screening of protease reaction promoter (Example 1); type: biochemical; details: for protease reaction promoting effect (in words): judged from Table 1; for AH − AL / AH (absorbance from primary calibrator at level 4 (9.88%)) / AL (absorbance from primary calibrator at level 2 (5.38%)): 660 nm
Method: 1) R-1: Reagent for Protein Decomposition
2) R-2: Reagent for Glycated Amino Acid Detection
The following substances were independently used as a test sample. Note that concentrations described in parentheses each represent a final concentration of the substance in the reagent R1.
Absorbance before the addition of the reagent R-2 and 5 minutes after the addition was measured at 660 nm. […] The AH-AL shown in Table 1 is a difference obtained by subtracting absorbance AL which was obtained from the primary calibrator at level 2 (5.38%) from absorbance AH which was obtained from the primary calibrator at level 4 (9.88%). Here, if AH-AL is large, the sample is judged to have a protease reaction promoting effect. In particular, when AH-AL is 20 or more, the sample has an excellent promoting effect.

hemoglobin = hemoglobin (Homo sapiens, UniProt P68871+P69905); assay: Measurement of hemoglobin and stability of reagent (Example 9); type: physicochemical; details: Example 2 reagent with 1% promoter; 660 nm; FIG. 1
Sequence of hemoglobin (P69905 2-142 limits assumed): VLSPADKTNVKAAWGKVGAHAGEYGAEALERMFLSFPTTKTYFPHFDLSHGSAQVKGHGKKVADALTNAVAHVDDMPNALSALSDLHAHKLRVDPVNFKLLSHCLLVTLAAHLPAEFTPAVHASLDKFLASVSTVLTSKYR
Sequence of hemoglobin (P68871 2-147 limits assumed): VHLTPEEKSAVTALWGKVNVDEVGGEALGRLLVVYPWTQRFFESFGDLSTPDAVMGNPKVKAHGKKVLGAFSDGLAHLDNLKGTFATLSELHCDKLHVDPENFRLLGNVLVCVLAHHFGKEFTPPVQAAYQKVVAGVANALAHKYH
Method: By using the reagents of Example 2, measurement was performed for a standard product having a known hemoglobin concentration.
Measurement was performed by using an autoanalyzer (Hitachi autoanalyzer 7170S; manufactured by Hitachi Ltd.). 20 μl of a sample was added with 180 μl of each of the reagents, and changes in absorbance were measured at 660 nm. Water was used as a control, and differences in absorbance between the sample and the water were calculated after 5 minutes. 5-serially diluted products of the standard hemoglobin product were used as the sample.
In addition, a preservation test was performed for a reagent in which sarcosinate MN was used as a protease reaction promoter at 37° C. for 4 days. The measurement of 5.5 g/dl of the standard hemoglobin product was performed by using, as a calibrator, a 30-fold diluted product of a standard substance for HbA1c measurement (primary calibrator JDS HbA1c Lot2, manufactured by Health Care Technology Foundation, level 1, hemoglobin concentration of 135 g/L). As a result, the measurement values of the hemoglobin were 54 mAbs, 4.5 g/L before the preservation test and 50 mAbs, 4.6 g/L after the preservation test. From the results, it was assumed that the present reagent is stable for 6 months or longer under refrigeration.

protease = target: T1, protease (Bacillus licheniformis, UniProt P00780); assay: Effect of protease reaction promoter on glycated albumin measurement (Example 12); type: biochemical
T1 construct: purchased Sigma Aldrich Japan K.K
T1 sequence (P00780 106-379): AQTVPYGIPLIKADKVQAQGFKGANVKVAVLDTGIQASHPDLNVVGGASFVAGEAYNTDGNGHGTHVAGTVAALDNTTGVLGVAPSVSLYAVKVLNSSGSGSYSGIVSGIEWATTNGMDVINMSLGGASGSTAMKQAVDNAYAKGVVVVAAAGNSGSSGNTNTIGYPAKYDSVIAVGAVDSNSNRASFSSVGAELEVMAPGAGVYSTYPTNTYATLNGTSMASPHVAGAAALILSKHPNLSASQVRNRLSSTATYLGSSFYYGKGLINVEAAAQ
Method: The reagents of Example 5 were used. 240 μl of the reagent R-1 which had been incubated to 37° C. was added with 8 μl of a control plasma H (manufactured by BML Inc.); […], and absorbance thereof was measured using a dominant wavelength of 546 nm and a subwavelength of 700 nm. A reaction was initiated at 37° C., and 80 μl of the R-2 reagent was added to the mixture exactly 5 minutes after the initiation. Absorbance before the addition of the R-2 reagent and after 5 minutes of the addition was measured. In addition, measurement was performed for a blank which was prepared by using distilled water instead of the substrate solution. The change in absorbance obtained from the control substrate solution was subtracted by the change in absorbance obtained from the blank sample, to thereby calculate ΔA0. Conversion of the values was performed by simultaneous measurement for a calibrator (manufactured by Asahi Kasei Pharma Corporation) for Lucica GA and comparison of absorbance. The measurement value for albumin was obtained from a difference in absorbance which was obtained by subtracting absorbance immediately before the addition of the R-2 reagent from absorbance immediately after the addition of the sample. […]

[2] = Screening of stabilizer for colorant, MBTH-TOOS (Example 13); type: physicochemical; details: MBTH-TOOS, 570 nm, 37° C., additives at conc. (1%; IDA 1 mM; Zn, Al 0.1 mM; ferrocyanide 0.01 mM; sorbitol 5%; DMSO 10%)
[3] = Screening of stabilizer for colorant, DA64 (Example 13); type: physicochemical; details: DA-64, 750 nm, 37° C., additives at conc. (1%; IDA 1 mM; Zn, Al 0.1 mM; ferrocyanide 0.01 mM; sorbitol 5%; DMSO 10%)
Method: (§1) The following substances were used as test samples. Note that concentrations described in parentheses each represent a final concentration of the substance in the reagent R-1.
(§2) Tween-20 (1%), Brij35 (1%), Triton X-100 (1%), deoxycholic acid (1%), imino-diacetic acid (IDA; 1 mM), ZnSO4 (0.1 mM), AlCl3 (0.1 mM), potassium ferrocyanate (0.01 mM), sorbitol (5%), glucose (5%), sodium nitrite (2 mM), dimethylsulfoxide (DMSO; 10%) (those substances are manufactured by Wako Pure Chemical Industries, Inc.), 2-hydroxypropyl-β-cyclodextrin (2HP β CD; 0.5%, 2%, 5%) and methyl-β-cyclodextrin (M β CD; 0.5%, 2%, 5%) (those substances are manufactured by Nihon Shokuhin Kako Co., Ltd.).
(§3) 500 μl of the R-1 reagent and 500 μl of the R-2 which had been incubated to 37° C. were mixed. The mixture was incubated to 37° C. for 2 minutes, and absorbance thereof (A0) was measured. The mixture was added with 10 μl of 500 μM hydrogen peroxide or distilled water. The whole was incubated to 37° C., and absorbance exactly 5 minutes after the addition of hydrogen peroxide (A1) was measured, to calculate a change in absorbance ΔA (A1-A0). The absorbance was measured using a wavelength of 750 nm when DA64 was used as the colorant, a wavelength of 660 nm when DA67 was used as the colorant, and a wavelength of 570 nm when 4-AA-TOOS was used as the colorant.
(§4) Immediately after the preparation of the reagent, the reagent was preserved at 37° C. for 2 days and 9 days, and measurement of sensitivity of a blank which was distilled water and of hydrogen peroxide was performed.

[4] = Screening of stabilizer for colorant, DA67 (Example 13); type: physicochemical; details: DA-67, 660 nm, 37° C., additives at conc. (1%; IDA 1 mM; Zn, Al 0.1 mM; ferrocyanide 0.01 mM; sorbitol 5%; DMSO 10%)
Method: as §1, §2, §3, §4

[5] = Effect of catalase addition on reagent containing cyclodextrin and colorant (Example 14); type: physicochemical; details: for 500 μM hydrogen peroxide / Blank: DA-67, 2% 2-hydroxypropyl-β-cyclodextrin, 500 U/ml catalase, 37° C.
Method: as §3
The same operation method as in Example 13 was used. Immediately after the preparation of the reagent, the reagent was preserved at 37° C. for 2 days and 9 days, and measurement of sensitivity of a blank which was distilled water and of hydrogen peroxide was performed.

[6] = test sample 1% in R-1, 20 or more = excellent promoting effect

Row | Compound | protease reaction promoting effect (in words) [1] | AH − AL [1, 6] [mAbs] | quantification of hemoglobin (in words) (hemoglobin) | AH (absorbance from primary calibrator at level 4 (9.88%)) ([1]; test sample 1% in R-1) | AL (absorbance from primary calibrator at level 2 (5.38%)) ([1]; test sample 1% in R-1) | blank (distilled water) change in absorbance ([2]; 0 days) [Abs] | blank (distilled water) change in absorbance ([2]; 2 days) [Abs] | blank (distilled water) change in absorbance ([3]; 0 days) [Abs] | blank (distilled water) change in absorbance ([3]; 2 days) [Abs] | blank (distilled water) change in absorbance ([3]; 9 days) [Abs] | blank (distilled water) change in absorbance ([4]; 0 days) [Abs] | blank (distilled water) change in absorbance ([4]; 2 days) [Abs] | also measured
1 | CCCCCCCCCCCCOCCOCCOCCOCCOCCOCCOCCOCCOCCOCCOCC(=O)O [AKYPO-RLM100, polyoxyethylene(10)lauryl ether acetic acid] | effects were observed | 29.1 | hemoglobin was able to be quantified |  |  |  |  |  |  |  |  |  | 
2 | CCCCCCCCCCCC(=O)N(C)CCC(=O)[O-].[Na+] [Alaninate LN-30, sodium lauroyl methyl alaninate] | effects were observed | 26.7 |  | 92.3 | 65.6 |  |  |  |  |  |  |  | sensitivity of the GA measurement (protease; control serum, no dilution, with protease reaction promoter (without: 32 mAbs)): 48 mAbs; increase of reaction rate (protease; with vs without protease reaction promoter): 1.5 folds
3 | CCCCCCCCCCCCCCCCCC(=O)N(C)CCS(=O)(=O)[O-].[Na+] [SMT, sodium N-stearoyl methyl taurinate] | effects were observed | 23.8 | hemoglobin was able to be quantified | 110.2 | 86.4 |  |  |  |  |  |  |  | 
4 | OC[C@@H](O)[C@@H](O)[C@H](O)[C@@H](O)CO [Sorbitol, sorbitol, reference compound] |  |  |  |  |  | 0.151 | 1.225 | −0.010 | 0.080 | 0.230 | 0.093 | 2.545 | AH (absorbance from primary calibrator at level 4 (9.88%)) ([1]; test sample 5% in R-1): 68.3; AH − AL ([1]; test sample 5% in R-1): 6.5 mAbs; AL (absorbance from primary calibrator at level 2 (5.38%)) ([1]; test sample 5% in R-1): 61.8
5 | TritonX-100 [reference compound] |  | 5.2 |  | 44.9 | 39.7 | 0.146 | 1.135 | −0.005 | 0.080 | 0.221 | 0.085 | 2.100 | 
6 | catalase |  |  |  |  |  |  |  |  |  |  |  |  | 500 μM hydrogen peroxide ([5]; 0 days): 0.510; Blank ([5]; 0 days): 0.057; 500 μM hydrogen peroxide ([5]; 2 days): 0.335; Blank ([5]; 2 days): 0.452; 500 μM hydrogen peroxide ([5]; 9 days): 0.304; Blank ([5]; 9 days): 1.052; effect of catalase addition on blank after preservation (in words) ([5]; Table 4): the blank after preservation significantly decreased
